ChEMBL document CHEMBL5725899, “Benzofurans substituted with primary benzamide as HCV inhibitors” (2018)

Assay: HCV Replicon Luciferase Assay: To evaluate compound efficacy, titrated compounds were transferred to sterile 384-well tissue culture treated plates, and the plates were seeded with HCV replicon cells (50 μL at a density of 2.4×10^3 cells/well) in DMEM containing 4% FBS (final DMSO concentration at 0.5%). After 3 days incubation at 37° C., cells were analyzed for Renilla Luciferase activity using the EnduRen substrate (Promega cat #E6485) according to the manufacturer's directions. Briefly, the EnduRen substrate was diluted in DMEM and then added to the plates to a final concentration of 7.5 μM. The plates were incubated for at least 1 h at 37° C. then read on a Viewlux Imager (PerkinElmer) using a luminescence program. The 50% effective concentration (EC50) was calculated using the four-parameter logistic formula noted above.To assess cytotoxicity of compounds, Cell Titer-Blue (Promega) was added to the EnduRen-containing plates and incubated for at least 4 hrs at 37° C. The fluorescence signal from each well was read using a Viewlux Imager. All CC50 values were calculated using the four-parameter logistic formula.
Conditions: 72 h

Structure (SMILES) | EC50 [nM]
CNC(=O)c1c(-c2ccc(F)cc2)oc2cc(N(CCF)S(C)(=O)=O)c(-c3cccc(C(=O)N[C@H](COC)C4CC4)c3)cc12 | < 100
CNC(=O)c1c(-c2ccc(F)cc2)oc2cc(N(CCF)S(C)(=O)=O)c(-c3cccc(C(=O)N[C@@H](COC)C4CC4)c3)cc12 | < 100
